Results as given in ChEMBL document CHEMBL1201862, “PubChem BioAssay data set” (2004).
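How tested: cells in 96-well plates exposed to compound for 48 hours at five concentrations. GI50 is the concentration that inhibits growth by half.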 The source made the active and inactive calls. No stated cut-off is given here; in the data, active = GI50 up to about 1.1 µM and inactive = higher.

How the values were obtained:
Assay in all cases: growth of human tumour cells (NCI), 48 h
[1] = tested on: MCF7
[2] = tested on: COLO 205
[3] = tested on: UO-31
[4] = tested on: K562
[5] = tested on: SK-OV-3
[6] = tested on: T47D
[7] = tested on: Malme-3M
[8] = tested on: HCT-116
[9] = tested on: NCI-H23
[10] = tested on: NCI/ADR-RES
[11] = tested on: OVCAR-8
[12] = tested on: SK-MEL-5
[13] = tested on: HCT-15
[14] = tested on: OVCAR-4
[15] = tested on: LOX IMVI
[16] = tested on: SNB-75
[17] = tested on: Hs-578T
[18] = tested on: DU-145
[19] = tested on: HOP-62
[20] = tested on: HT-29
[21] = tested on: UACC-62
[22] = tested on: NCI-H226
[23] = tested on: PC-3
[24] = tested on: HL-60
[25] = tested on: NCI-H522
[26] = tested on: ACHN
[27] = tested on: IGROV-1
[28] = tested on: TK-10
[29] = tested on: CAKI-1
[30] = tested on: RXF 393
[31] = tested on: SK-MEL-28
[32] = tested on: KM12
[33] = tested on: 786-0
[34] = tested on: SF-268
[35] = tested on: SN12C
[36] = tested on: SR
[37] = tested on: RPMI-8226
[38] = tested on: EKVX
[39] = tested on: CCRF-CEM
[40] = tested on: UACC-257
[41] = tested on: SF-539
[42] = tested on: HOP-92
[43] = tested on: SNB-19
[44] = tested on: HCC 2998
[45] = tested on: MDA-MB-435
[46] = tested on: M14
[47] = tested on: A549
[48] = tested on: SW-620
[49] = tested on: MOLT-4
[50] = tested on: MDA-N
[51] = tested on: NCI-H460
[52] = tested on: BT-549
[53] = tested on: SF-295
[54] = tested on: MDA-MB-231

## N#Cc1nc(-c2cc([N+](=O)[O-])cc([N+](=O)[O-])c2)oc1N
[1]
  GI50: > 10 µM (inactive)
[2]
  GI50: > 10 µM (inactive)
[3]
  GI50: 8.93 µM (inactive)
[4]
  GI50: > 10 µM (inactive)
[5]
  GI50: > 10 µM (inactive)
[6]
  GI50: > 10 µM (inactive)
[7]
  GI50: > 10 µM (inactive)
[8]
  GI50: > 10 µM (inactive)
[9]
  GI50: > 10 µM (inactive)
[10]
  GI50: > 10 µM (inactive)
[11]
  GI50: > 10 µM (inactive)
[12]
  GI50: > 10 µM (inactive)
[13]
  GI50: > 10 µM
[14]
  GI50: > 10 µM (inactive)
[15]
  GI50: > 10 µM (inactive)
[16]
  GI50: > 10 µM (inactive)
[17]
  GI50: > 10 µM (inactive)
[18]
  GI50: > 10 µM (inactive)
[19]
  GI50: > 10 µM (inactive)
[20]
  GI50: > 10 µM (inactive)
[21]
  GI50: > 10 µM (inactive)
[22]
  GI50: > 10 µM (inactive)
[23]
  GI50: > 10 µM (inactive)
[24]
  GI50: > 10 µM (inactive)
[25]
  GI50: > 10 µM (inactive)
[26]
  GI50: > 10 µM (inactive)
[27]
  GI50: > 10 µM (inactive)
[28]
  GI50: > 10 µM (inactive)
[29]
  GI50: > 10 µM (inactive)
[30]
  GI50: > 10 µM (inactive)
[31]
  GI50: > 10 µM (inactive)
[32]
  GI50: > 10 µM (inactive)
[33]
  GI50: > 10 µM (inactive)
[34]
  GI50: > 10 µM (inactive)
[35]
  GI50: > 10 µM (inactive)
[36]
  GI50: > 10 µM (inactive)
[37]
  GI50: > 10 µM (inactive)
[38]
  GI50: > 10 µM (inactive)
[39]
  GI50: > 10 µM (inactive)
[40]
  GI50: > 10 µM (inactive)
[41]
  GI50: > 10 µM (inactive)
[42]
  GI50: > 10 µM (inactive)
[43]
  GI50: > 10 µM (inactive)
[44]
  GI50: > 10 µM (inactive)
[45]
  GI50: > 10 µM (inactive)
[46]
  GI50: > 10 µM (inactive)
[47]
  GI50: > 10 µM (inactive)
[48]
  GI50: > 10 µM (inactive)
[49]
  GI50: > 10 µM (inactive)
[50]
  GI50: > 10 µM (inactive)
[51]
  GI50: > 10 µM (inactive)
[52]
  GI50: > 10 µM (inactive)
[53]
  GI50: > 10 µM (inactive)
[54]
  GI50: > 10 µM (inactive)
